Experimental data from patent US20200123146A1, “HETEROCYCLIC INTEGRIN AGONISTS” (GB006, Inc., priority 2016, published 2020).

target: T1, integrin CD11b/CD18 (K562 CD11b/CD18 cells) (Homo sapiens, UniProt P05107+P11215); assay: K562 cell adhesion assay with immobilized ligands; type: cell-based; settings: cell-based adhesion assay, K562 cells, 30 min at 37° C.
T1 construct: host or cells: K562 cells stably transfected with wild-type CD11b/CD18
Source text: Cell Lines. K562 cells (ATCC) stably transfected with wild-type integrin CD11b/CD18 (K562 CD11b/CD18) have been described previously (Park, etal. J Biomol Screen, 2007. 12(3): 406; Gupta, et al., Blood, 2007. 109(8): 3513; incorporated herein by reference in their entirety). Mutant CD11bE320A has been described previously (Alonso, et al. Curr Biol, 2002. 12(10): R340; incorporated herein by reference in its entirety). K562 cells stably transfected with mutant integrin CD11bE320A/CD18 (K562 E320A) were generated according to literature protocols (Park, supra; Gupta, supra). All cell lines were maintained in Iscove's Modified Dulbecco's Medium (IMDM) supplemented with 10% heat-inactivated fetal bovine serum, 50 IU/ml penicillin and streptomycin and 0.5 mg/ml G418.
K562 Cell Adhesion Assay. Cell adhesion assays with immobilized ligands were performed as previously described (Park, supra). Assays with all different K562 cell lines (K562, K562 CD11b/CD18 and K562 E320A) were performed in an identical fashion. Briefly, 384-well Highbind microtiter plates were coated with a 30 μL solution of ligand in Phosphate Buffered Saline, pH 7.4 containing 1 mM each of Ca^2+ and Mg^2+ ions (PBS^++) overnight at 4° C. Ligand Fg was coated at a concentration of 5-15 μg/mL and iC3b at 1-5 μg/mL. Heterodimer specific mAb IB4 was coated at 1-20 μg/mL. Subsequently, the non-specific sites in the wells were blocked by incubation with 1% non-fat milk in Tris Buffered Saline (TBS), pH 7.4, at room temperature for 1 h. Next, the wells were washed three times with TBS. K562 cells were suspended in the assay buffer (TBS containing 1 mM each of Ca^2+ and Mg^2+ ions (TBS^++)) and were transferred to the ligand-coated wells (30,000 cells/well). Stock solutions of the integrin agonists were prepared by dissolving the compounds in DMSO at a concentration of 2-10 mM. Final concentration of DMSO in the assay was approximately 1-2%. K562 cells were incubated in the presence of increasing concentration of integrin agonist for 30 min at 37° C. To dislodge non-adherent cells, the assay plates were gently inverted and kept in the inverted position for 30 min at room temperature. Cells remaining adherent were fixed using formaldehyde and were quantitated using imaging microscopy, as previously described (Park, supra).

Q: For `CN1C(=O)N(Cc2ccccc2)C(=O)/C1=C/c1ccc(-c2ccc(C(=O)O)cc2)o1` [Compound 2, (Z)-4-(5-((1-Benzyl-3-methyl-2,5-dioxoimidazolidin-4-ylidene)methyl)furan-2-yl)benzoic acid], which EC50 is on record?
A: > 10000 nM

Q: For `O=C(O)c1ccc(-c2ccc(/C=C3\NC(=O)N(Cc4ccccc4)C3=O)o2)cc1` [Compound 3, (Z)-4-(5-((1-Benzyl-2,5-dioxoimidazolidin-4-ylidene)methyl)furan-2-yl)benzoic acid], which EC50 is on record?
A: > 10000 nM

Q: `O=C(O)c1ccc(-c2ccc(/C=C3\NC(=S)N(Cc4ccccc4)C3=O)o2)cc1` [Compound 4, (Z)-4-(5-((1-Benzyl-5-oxo-2-thioxoimidazolidin-4-ylidene)methyl)furan-2-yl)benzoic acid] was tested. Which EC50 did it give?
A: 1000 to 10000 nM

Q: For `CN1C(=S)N(Cc2ccccc2)C(=O)/C1=C/c1ccc(-c2ccc(C(=O)O)cc2)o1` [Compound 5, (Z)-4-(5-((1-Benzyl-3-methyl-5-oxo-2-thioxoimidazolidin-4-ylidene)methyl)furan-2-yl)benzoic acid], which EC50 is on record?
A: > 10000 nM

Q: How did the EC50 turn out when `CCOC(=O)c1ccc(-c2ccc(CN3CC(=O)N(Cc4ccccc4)C3=O)o2)cc1` [Compound 6, Ethyl 4-(5-((3-benzyl-2,4-dioxoimidazolidin-1-yl)methyl)furan-2-yl)benzoate] was run?
A: > 10000 nM

Q: `CCOC(=O)c1ccc(-c2ccc(CN3CC(=S)N(Cc4ccccc4)C3=O)o2)cc1` [Compound 7, Ethyl 4-(5-((3-benzyl-2-oxo-4-thioxoimidazolidin-1-yl)methyl)furan-2-yl)benzoate] was tested. Which EC50 did it give?
A: > 10000 nM

Q: With `O=C(O)c1ccc(-c2cccc(/C=C3\OC(=S)N(Cc4ccc(F)cc4)C3=O)c2)cc1` [Compound 9, (Z)-3′-((3-(4-Fluorobenzyl)-4-oxo-2-thioxooxazolidin-5-ylidene)methyl)-[1,1′-biphenyl]-4-carboxylic acid] as the compound, how does the EC50 read?
A: > 10000 nM

Q: Which EC50 does the source give for `COC(=O)c1ccc(-c2ccc(/C=C3\OC(=S)N(Cc4ccc(F)cc4)C3=O)o2)cn1` [Compound 10, methyl (Z)-5-(5-((3-(4-fluorobenzyl)-4-oxo-2-thioxooxazolidin-5-ylidene)methyl)furan-2-yl)picolinate] here?
A: 250 to 1000 nM

Q: With `O=C(O)c1ccc(-c2ccc(CN3CC(=O)N(Cc4ccccc4)C3=O)o2)cc1` [Compound 11, 4-(5-((3-Benzyl-2,4-dioxoimidazolidin-1-yl)methyl)furan-2-yl)benzoic acid] as the compound, how does the EC50 read?
A: > 10000 nM

Q: `COC(=O)c1ccc(-c2ccc(/C=C3\SC(=S)N(Cc4ccccc4)C3=O)o2)cn1` [Compound 13, Methyl (Z)-5-(5-((3-benzyl-4-oxo-2-thioxothiazolidin-5-ylidene)methyl)furan-2-yl)picolinate] was tested. Which EC50 did it give?
A: 250 to 1000 nM

Q: Which EC50 does the source give for `O=C(O)c1ccc(-c2ccc(/C=C3\SC(=S)N(Cc4ccccc4)C3=O)o2)nc1` [Compound 14, (Z)-6-(5-((3-Benzyl-4-oxo-2-thioxothiazolidin-5-ylidene)methyl)furan-2-yl)nicotinic acid] here?
A: 250 to 1000 nM

Q: `COC(=O)c1ccc(-c2ccc(/C=C3\SC(=S)N(Cc4ccc(F)cc4)C3=O)o2)cn1` [Compound 16, Methyl (Z)-5-(5-((3-(4-fluorobenzyl)-4-oxo-2-thioxothiazolidin-5-ylidene)methyl)furan-2-yl)picolinate] was tested. Which EC50 did it give?
A: 100 to 250 nM

Q: Which EC50 does the source give for `O=C(O)c1ccc(-c2cccc(/C=C3\SC(=S)N(Cc4ccccc4)C3=O)c2)cc1` [Compound 17, (Z)-3′-((3-Benzyl-4-oxo-2-thioxothiazolidin-5-ylidene)methyl)-[1,1′-biphenyl]-4-carboxylic acid] here?
A: 1000 to 10000 nM

Q: How did the EC50 turn out when `O=C(O)c1ccc(-c2cccc(/C=C3\SC(=S)N(Cc4ccccc4)C3=O)n2)cc1` [Compound 18, (Z)-4-(6-((3-Benzyl-4-oxo-2-thioxothiazolidin-5-ylidene)methyl)pyridin-2-yl)benzoic acid] was run?
A: 1000 to 10000 nM

Q: `O=C(O)c1ccc(-c2nccc(/C=C3\SC(=S)N(Cc4ccccc4)C3=O)n2)cc1` [Compound 19, (Z)-4-(4-((3-Benzyl-4-oxo-2-thioxothiazolidin-5-ylidene)methyl)pyrimidin-2-yl)benzoic acid] was tested. Which EC50 did it give?
A: 1000 to 10000 nM

Q: `O=C(O)c1ccc(-c2cccc(/C=C3\SC(=S)N(Cc4ccc(F)cc4)C3=O)c2)cc1` [Compound 20, (Z)-3′-((3-(4-Fluorobenzyl)-4-oxo-2-thioxothiazolidin-5-ylidene)methyl)-[1,1′-biphenyl]-4-carboxylic acid] was tested. Which EC50 did it give?
A: 1000 to 10000 nM

Q: Which EC50 does the source give for `O=C(O)c1ccc(-c2cccc(/C=C3\SC(=S)N(Cc4ccc(F)cc4)C3=O)n2)cc1` [Compound 21, (Z)-4-(6-((3-(4-Fluorobenzyl)-4-oxo-2-thioxothiazolidin-5-ylidene)methyl)pyridin-2-yl)benzoic acid] here?
A: 250 to 1000 nM

Q: For `O=C(O)c1ccc(-c2ccnc(/C=C3\SC(=S)N(Cc4ccc(F)cc4)C3=O)c2)cc1` [Compound 22, (Z)-4-(2-((3-(4-Fluorobenzyl)-4-oxo-2-thioxothiazolidin-5-ylidene)methyl)pyridin-4-yl)benzoic acid], which EC50 is on record?
A: 1000 to 10000 nM

Q: `COC(=O)c1ccc(-c2cccc(/C=C3\SC(=S)N(Cc4ccccc4)C3=O)c2)cc1` [Compound 23, methyl (Z)-3′-((3-benzyl-4-oxo-2-thioxothiazolidin-5-ylidene)methyl)-[1,1′-biphenyl]-4-carboxylate] was tested. Which EC50 did it give?
A: > 10000 nM

Q: `COC(=O)c1ccc(-c2cccc(/C=C3\SC(=S)N(Cc4ccccc4)C3=O)n2)cc1` [Compound 24, Methyl (Z)-4-(6-((3-benzyl-4-oxo-2-thioxothiazolidin-5-ylidene)methyl)pyridin-2-yl)benzoate] was tested. Which EC50 did it give?
A: > 10000 nM

Q: `O=C(O)c1ccc(-c2ccc(/C=C3\SC(=S)N(Cc4ccccc4)C3=O)s2)cc1` [Compound 25, (Z)-4-(5-((3-Benzyl-4-oxo-2-thioxothiazolidin-5-ylidene)methyl)thiophen-2-yl)benzoic acid] was tested. Which EC50 did it give?
A: 100 to 250 nM

Q: `Cc1ccccc1CN1C(=O)/C(=C/c2ccc(-c3ccc(C(=O)O)cc3)o2)SC1=S` [Compound 26, (Z)-4-(5-((3-(2-Methylbenzyl)-4-oxo-2-thioxothiazolidin-5-ylidene)methyl)furan-2-yl)benzoic acid] was tested. Which EC50 did it give?
A: 250 to 1000 nM

Q: `COc1ccccc1CN1C(=O)/C(=C/c2ccc(-c3ccc(C(=O)O)cc3)o2)SC1=S` [Compound 27, (Z)-4-(5-((3-(2-Methoxybenzyl)-4-oxo-2-thioxothiazolidin-5-ylidene)methyl)furan-2-yl)benzoic acid] was tested. Which EC50 did it give?
A: 250 to 1000 nM

Q: How did the EC50 turn out when `Cc1cccc(CN2C(=O)/C(=C/c3ccc(-c4ccc(C(=O)O)cc4)o3)SC2=S)c1` [Compound 28, (Z)-4-(5-((3-(3-Methylbenzyl)-4-oxo-2-thioxothiazolidin-5-lidene)methyl)furan-2-yl)benzoic acid] was run?
A: 250 to 1000 nM

Q: With `COc1cccc(CN2C(=O)/C(=C/c3ccc(-c4ccc(C(=O)O)cc4)o3)SC2=S)c1` [Compound 29, (Z)-4-(5-((3-(3-Methoxybenzyl)-4-oxo-2-thioxothiazolidin-5-ylidene)methyl)furan-2-yl)benzoic acid] as the compound, how does the EC50 read?
A: 250 to 1000 nM

Q: For `O=C(O)c1ccc(-c2ccc(/C=C3\SC(=S)N(Cc4cccc(Cl)c4)C3=O)o2)cc1` [Compound 30, (Z)-4-(5-((3-(3-Chlorobenzyl)-4-oxo-2-thioxothiazolidin-5-ylidene)methyl)furan-2-yl)benzoic acid], which EC50 is on record?
A: 100 to 250 nM

Q: Which EC50 does the source give for `Cc1cccc(CN2C(=O)/C(=C/c3ccc(-c4ccc(C(=O)O)cc4)o3)SC2=S)c1C` [Compound 31, (Z)-4-(5-((3-(2,3-Dimethylbenzyl)-4-oxo-2-thioxothiazolidin-5-ylidene)methyl)furan-2-yl)benzoic acid] here?
A: 250 to 1000 nM

Q: With `O=C(O)c1ccc(-c2ccc(/C=C3\SC(=S)N(Cc4ccc(F)cc4)C3=O)o2)cc1` [Compound 32, (Z)-4-(5-((3-(4-Fluorobenzyl)-4-oxo-2-thioxothiazolidin-5-ylidene)methyl)furan-2-yl)benzoic acid] as the compound, how does the EC50 read?
A: 100 to 250 nM

Q: With `COc1ccc(CN2C(=O)/C(=C/c3ccc(-c4ccc(C(=O)O)cc4)o3)SC2=S)cc1` [Compound 34, (Z)-4-(5-((3-(4-Methoxybenzyl)-4-oxo-2-thioxothiazolidin-5-ylidene)methyl)furan-2-yl)benzoic acid] as the compound, how does the EC50 read?
A: 100 to 250 nM

Q: `O=C(O)c1ccc(-c2ccc(/C=C3\SC(=S)N(Cc4ccc(Cl)cc4)C3=O)o2)cc1` [Compound 35, (Z)-4-(5-((3-(4-Chlorobenzyl)-4-oxo-2-thioxothiazolidin-5-ylidene)methyl)furan-2-yl)benzoic acid] was tested. Which EC50 did it give?
A: 100 to 250 nM

Q: With `O=C(O)c1ccc(-c2ccc(/C=C3\SC(=S)N(Cc4ccccc4Cl)C3=O)o2)cc1` [Compound 36, (Z)-4-(5-((3-(2-Chlorobenzyl)-4-oxo-2-thioxothiazolidin-5-ylidene)methyl)furan-2-yl)benzoic acid] as the compound, how does the EC50 read?
A: 250 to 1000 nM
